≈ marks a conversion by molar mass, not a printed value. Read-outs that look alike come from different tables or passages of the source.
Key:
P. aeruginosa PAO1 [1] = details: P. aeruginosa PAO1 without pore; 0.1 mM IPTG; LB, 37° C., 16 h
Method: (§3) Susceptibilities of E. coli and P. aeruginosa cells to different classes of antibiotics were determined by two-fold broth dilution method [1] with following modifications. Cells were grown in Luria-Bertani (LB) broth (tryptone 10 g/L, yeast extract 5 g/L and NaCl 5 g/L) with appropriate selection markers as needed, at 37° C. with shaking at 200 rpm. When needed, at OD600˜0.3, either L-arabinose (final concentration 0.1%) or IPTG (final concentration 0.1 mM) were added to induce the expression of the pore and cells were further incubated until OD600 reached 1.0. MICs of various antimicrobial agents were measured in 96-well micro-titer plates. For this purpose, exponentially growing cells were inoculated at a density of 10^5 cells/ml into wells containing LB medium in the presence of two-fold increasing concentrations of drugs under investigation at constant inducer concentration of 0.1% arabinose for E. coli or 0.1 mM IPTG for P. aeruginosa strains. Cell growth was determined visually or using Spark 10M microplate reader (Tecan) after incubation of the micro-titer plates at 37° C. for 16 h.
(§4) For this purpose, induced cells were dispensed into 96-well microplates with LB medium containing two-fold dilutions of an antibiotic of interest and a respective concentration of an inducer.

[2] = test system: P. aeruginosa PAO1Δ3 (Δ3); details: P. aeruginosa Δ3 without pore; 0.1 mM IPTG; LB, 37° C., 16 h
Method: as §3, §4

[3] = test system: P. aeruginosa Δ3-Pore (GKCW116, FhuAΔC/Δ4L pore); test: MIC, two-fold broth dilution, P. aeruginosa Δ3-Pore; details: P. aeruginosa Δ3-Pore; 0.1 mM IPTG; LB, 37° C., 16 h
Method: as §3, §4

[4] = test system: P. aeruginosa PAO1-Pore (GKCW115, FhuAΔC/Δ4L pore); test: MIC, two-fold broth dilution, P. aeruginosa PAO1-Pore; details: P. aeruginosa PAO1-Pore; 0.1 mM IPTG; LB, 37° C., 16 h
Method: as §3, §4

[5] = test system: P. aeruginosa PAO1, PAO1-Pore, Δ3, Δ3-Pore; test: Fold MIC change between P. aeruginosa strains (OM barrier, efflux); assay type: cell-based, Pseudomonas aeruginosa; details: P. aeruginosa
[6] = test system: E. coli WT-Pore (GKCW101, FhuAΔC/Δ4L pore); details: 0.1% arabinose, LB, 37° C., 16 h
Method: as §3, §4

E. coli BW 25113 (WT) [7] = details: E. coli WT without pore; 0.1% arabinose; LB, 37° C., 16 h
Method: as §3, §4

[8] = test system: E. coli ΔTolC-Pore (GKCW103, FhuAΔC/Δ4L pore); details: 0.1% arabinose, LB, 37° C., 16 h
Method: as §3, §4

E. coli GD102 (ΔTolC) = details: E. coli ΔTolC without pore; 0.1% arabinose; LB, 37° C., 16 h
Method: as §3, §4

[9] = test system: E. coli WT, WT-Pore, ΔTolC, ΔTolC-Pore; assay type: cell-based, Escherichia coli; details: E. coli
E. coli WT = test: Vancomycin disc susceptibility assay, E. coli WT; assay type: cell-based; details: Escherichia coli, 100 μg vancomycin disc, read-out: Zone of clearance
Method: (§1) Vancomycin susceptibility spot assay. Indicated E. coli (A) and P. aeruginosa (B) strains were seeded onto LB agar plates, ˜10^8 cells per plate, with and without inducers 0.1% arabinose and 0.1 mM IPTG, respectively. […] Seeded plates were incubated overnight at 37° C. Large clearance zones can be clearly seen in the presence of inducers.

P. aeruginosa PAO1 [10] = test: microbe, parasite or virus in culture; details: Pseudomonas aeruginosa, PAO1, 16 h, read-out: MIC PAO1 —
Method: as §3, §4

P. aeruginosa Δ3 = test: Vancomycin disc susceptibility assay, P. aeruginosa Δ3; assay type: cell-based; details: Pseudomonas aeruginosa, 200 μg vancomycin disc, read-out: Zone of clearance
Method: as §1

E. coli WT-Pore = test: Vancomycin disc susceptibility assay, E. coli WT-Pore; assay type: cell-based; details: Escherichia coli, read-out: Zone of clearance, E. coli WT-Pore, 100 μg vancomycin disc
Method: as §1

E. coli ΔTolC = test: Vancomycin disc susceptibility assay, E. coli ΔTolC; assay type: cell-based; details: Escherichia coli, read-out: Zone of clearance, E. coli ΔTolC, 100 μg vancomycin disc
Method: as §1

P. aeruginosa PAO1-Pore = test: Vancomycin disc susceptibility assay, P. aeruginosa PAO1-Pore; assay type: cell-based; details: Pseudomonas aeruginosa, 200 μg vancomycin disc, read-out: Zone of clearance
Method: as §1

[11] = test system: E. coli WT-Pore (GKCW101, FhuAΔC/Δ4L pore); test: microbe, parasite or virus in culture; details: Escherichia coli, 16 h, read-out: MIC BW 25113 (WT) Pore
Method: as §3, §4

E. coli ΔTolC-Pore = test: Vancomycin disc susceptibility assay, E. coli ΔTolC-Pore; assay type: cell-based; details: Escherichia coli, read-out: Zone of clearance, E. coli ΔTolC-Pore, 100 μg vancomycin disc
Method: (§2) Vancomycin susceptibility spot assay. […] […] Seeded plates were incubated overnight at 37° C. Large clearance zones can be clearly seen in the presence of inducers.

P. aeruginosa Δ3-Pore = test: Vancomycin disc susceptibility assay, P. aeruginosa Δ3-Pore; assay type: cell-based; details: Pseudomonas aeruginosa, 200 μg vancomycin disc, read-out: Zone of clearance
Method: as §1

E. coli BW 25113 (WT) [12] = test: microbe, parasite or virus in culture; details: Escherichia coli, 16 h, read-out: MIC BW 25113 (WT) —
Method: as §3, §4

P. aeruginosa PAO1 [13] = test: Vancomycin disc susceptibility assay, P. aeruginosa PAO1; assay type: cell-based; details: Pseudomonas aeruginosa, 200 μg vancomycin disc, read-out: Zone of clearance
Method: as §2

Compound: Tobramycin
- MIC PAO1 — (P. aeruginosa PAO1 [1]): 2 µg/mL
- MIC Δ3 — [2]: 0.5 µg/mL
- MIC Δ3 Pore [3]: 0.5 µg/mL
- MIC PAO1 Pore [4]: 1 µg/mL
- Fold MIC change, Efflux, PAO1-Pore/Δ3-Pore [5]: 2 fold
- Fold MIC change, Efflux, PAO1/Δ3 [5]: 4 fold
- Fold MIC change, OM barrier, PAO1/PAO1-Pore [5]: 2 fold
- Fold MIC change, OM barrier, Δ3/Δ3-Pore [5]: 1 fold

Compound: Triclosan
- MIC PAO1 — (P. aeruginosa PAO1 [1]): >1024 µg/mL
- MIC Δ3 — [2]: 32 µg/mL
- MIC BW 25113 (WT) Pore [6]: 0.031 µg/mL
- MIC Δ3 Pore [3]: 8 µg/mL
- MIC BW 25113 (WT) — (E. coli BW 25113 (WT) [7]): 0.031 µg/mL
- MIC PAO1 Pore [4]: >1024 µg/mL
- MIC GD102 (ΔTolC) Pore [8]: 0.002 µg/mL
- MIC GD102 (ΔTolC) — (E. coli GD102 (ΔTolC)): 0.004 µg/mL

Compound: Coumermycin
- MIC PAO1 — (P. aeruginosa PAO1 [1]): 16 µg/mL
- MIC Δ3 — [2]: 16 µg/mL
- MIC BW 25113 (WT) Pore [6]: 2 µg/mL
- MIC Δ3 Pore [3]: 1 µg/mL
- MIC BW 25113 (WT) — (E. coli BW 25113 (WT) [7]): 8 µg/mL
- Fold MIC change, Efflux, WT-Pore/ΔTolC-Pore [9]: 4 fold
- Fold MIC change, Efflux, WT/ΔTolC [9]: 1 fold
- Fold MIC change, OM barrier, WT/WT-Pore [9]: 4 fold
- Fold MIC change, OM barrier, ΔTolC/ΔTolC-Pore [9]: 16 fold
- MIC PAO1 Pore [4]: 1 µg/mL
- Fold MIC change, Efflux, PAO1-Pore/Δ3-Pore [5]: 1 fold
- Fold MIC change, Efflux, PAO1/Δ3 [5]: 1 fold
- Fold MIC change, OM barrier, PAO1/PAO1-Pore [5]: 16 fold
- Fold MIC change, OM barrier, Δ3/Δ3-Pore [5]: 16 fold
- MIC GD102 (ΔTolC) Pore [8]: 0.5 µg/mL
- MIC GD102 (ΔTolC) — (E. coli GD102 (ΔTolC)): 8 µg/mL

Compound: CN[C@H](CC(C)C)C(=O)N[C@H]1C(=O)N[C@@H](CC(N)=O)C(=O)N[C@H]2C(=O)N[C@H]3C(=O)N[C@H](C(=O)N[C@H](C(=O)O)c4cc(O)cc(O)c4-c4cc3ccc4O)[C@H](O)c3ccc(c(Cl)c3)Oc3cc2cc(c3O[C@@H]2O[C@H](CO)[C@@H](O)[C@H](O)[C@H]2O[C@H]2C[C@](C)(N)[C@H](O)[C@H](C)O2)Oc2ccc(cc2Cl)[C@H]1O [Vancomycin]
- MIC Δ3 — [2]: 1024 µg/mL (≈ 707 µM)
- zone of inhibition at 100 µg/disc (E. coli WT; Arabinose (0.1%)): 6 mm
- zone of inhibition at 100 µg/disc (E. coli WT; IPTG (0.1 mM)): 6 mm
- zone of inhibition at 100 µg/disc (E. coli WT; No inducer): 5 mm
- MIC (P. aeruginosa PAO1 [10]): 2050 µg/mL (≈ 1410 µM)
- zone of inhibition at 200 µg/disc (P. aeruginosa Δ3; Arabinose (0.1%)): 12 mm
- zone of inhibition at 200 µg/disc (P. aeruginosa Δ3; IPTG (0.1 mM)): 9 mm
- zone of inhibition at 200 µg/disc (P. aeruginosa Δ3; No inducer): 10 mm
- zone of inhibition at 100 µg/disc (E. coli WT-Pore; Arabinose (0.1%)): 16 mm
- zone of inhibition at 100 µg/disc (E. coli WT-Pore; IPTG (0.1 mM)): 11 mm
- zone of inhibition at 100 µg/disc (E. coli WT-Pore; No inducer): 8 mm
- zone of inhibition at 100 µg/disc (E. coli ΔTolC; Arabinose (0.1%)): 6 mm
- zone of inhibition at 100 µg/disc (E. coli ΔTolC; IPTG (0.1 mM)): 5 mm
- zone of inhibition at 100 µg/disc (E. coli ΔTolC; No inducer): 5 mm
- zone of inhibition at 200 µg/disc (P. aeruginosa PAO1-Pore; Arabinose (0.1%)): 21 mm
- zone of inhibition at 200 µg/disc (P. aeruginosa PAO1-Pore; IPTG (0.1 mM)): 19 mm
- MIC [11]: 8 µg/mL (≈ 5.52 µM)
- zone of inhibition at 100 µg/disc (E. coli ΔTolC-Pore; Arabinose (0.1%)): 15 mm
- zone of inhibition at 100 µg/disc (E. coli ΔTolC-Pore; IPTG (0.1 mM)): 16 mm
- zone of inhibition at 100 µg/disc (E. coli ΔTolC-Pore; No inducer): 7 mm
- MIC Δ3 Pore [3]: 64 µg/mL (≈ 44.2 µM)
- Fold MIC change, Efflux, WT-Pore/ΔTolC-Pore [9]: 2 fold
- Fold MIC change, Efflux, WT/ΔTolC [9]: 0.5 fold
- Fold MIC change, OM barrier, WT/WT-Pore [9]: 16 fold
- Fold MIC change, OM barrier, ΔTolC/ΔTolC-Pore [9]: 64 fold
- zone of inhibition at 200 µg/disc (P. aeruginosa Δ3-Pore; Arabinose (0.1%)): 22 mm
- zone of inhibition at 200 µg/disc (P. aeruginosa Δ3-Pore; IPTG (0.1 mM)): 18 mm
- zone of inhibition at 200 µg/disc (P. aeruginosa Δ3-Pore; No inducer): 12 mm
- MIC (E. coli BW 25113 (WT) [12]): 128 µg/mL (≈ 88.3 µM)
- Fold MIC change, Efflux, PAO1-Pore/Δ3-Pore [5]: 2 fold
- Fold MIC change, Efflux, PAO1/Δ3 [5]: 2 fold
- Fold MIC change, OM barrier, PAO1/PAO1-Pore [5]: 16 fold
- Fold MIC change, OM barrier, Δ3/Δ3-Pore [5]: 16 fold
- MIC GD102 (ΔTolC) Pore [8]: 4 µg/mL (≈ 2.76 µM)
- zone of inhibition at 200 µg/disc (P. aeruginosa PAO1 [13]; Arabinose (0.1%)): 12 mm
- zone of inhibition at 200 µg/disc (P. aeruginosa PAO1 [13]; IPTG (0.1 mM)): 10 mm
- zone of inhibition at 200 µg/disc (P. aeruginosa PAO1 [13]; No inducer): 11 mm
- MIC GD102 (ΔTolC) — (E. coli GD102 (ΔTolC)): 256 µg/mL (≈ 177 µM)

From patent US20160280743A1, “BACTERIAL MUTANTS AND METHODS OF USE” (priority 2015, published 2016)
